Measurements: patent publication US6627651B1, “Cyclic compounds and uses thereof” (Takeda Chemical Industries, Ltd., priority 1999, dated 2003)

Row | melting point | Compound
1 | 179 to 180 °C (dec.) | Cc1ccc(-c2ccc3c(c2)CN(C(=O)Nc2ccc(C[N+]4(C)CCCCC4)cc2)CC3)cc1.[Cl-]
2 | 294 to 296 °C | Cc1ccc(-c2ccc3c(c2)C=C(C(=O)Nc2ccc(C(=N)N)cc2)CCO3)cc1.Cl
3 | > 300 °C | CCNC(=N)c1ccc(NC(=O)C2=Cc3cc(-c4ccc(C)cc4)ccc3OCC2)cc1.Cl
4 | 230 to 235 °C | Cc1ccc(C2=Cc3cc(C(=O)Nc4ccc(CN(C)C5CCOCC5)cc4)ccc3OC2)cc1 [Compound 22, 3-(4-methylphenyl)-N-[4-[N-methyl-N-(tetrahydropyran-4-yl)aminomethyl]phenyl]-2H-1-benzopyran-6-carboxamide]
5 | 246 to 250 °C | Cc1ccc(-c2ccc3cc(C(=O)Nc4ccc(CN(C)C5CCOCC5)cc4)[nH]c3c2)cc1 [Compound 23, 6-(4-methylphenyl)-N-[4-[N-methyl-N-(tetrahydropyran-4-yl)aminomethyl]phenyl]-1H-indole-2-carboxamide]
6 | 225 to 226 °C | Cc1ccc(-c2ccc3cc(C(=O)Nc4ccc(CN(C)C5CCOCC5)cc4)n(C)c3c2)cc1 [Compound 24, 1-methyl-6-(4-methylphenyl)-N-[4-[N-methyl-N-(tetrahydropyran-4-yl)aminomethyl]phenyl]-1H-indole-2-carboxamide]
7 | 215 to 218 °C (dec.) | Cc1ccc(C2=Cc3cc(C(=O)Nc4ccc(C[N+](C)(C)C5CCOCC5)cc4)ccc3OC2)cc1.[I-] [Compound 28, N,N-dimethyl-N-[4-[[3-(4-methylphenyl)-2H-1-benzopyran-6-carbonyl]amino]benzyl]-4-tetrahydropyranylammonium iodide]
8 | 148 to 151 °C | Cc1ccc(-c2ccc3c(c2)C=C(C(=O)NC2CCN(CC4=CCCCCCC4)CC2)CCO3)cc1 [Compound 57, N-(1-(cycloocten-1-yl)methylpiperidin-4-yl)-7-(4-methylphenyl)-2,3-dihydro-1-benzooxepine-4-carboxamide]
9 | 161 to 162 °C (dec.) | Cc1ccc(-c2ccc3c(c2)C=C(C(=O)NC2CCN(Cc4ccccc4)CC2)CCO3)cc1 [Compound 58, N-(1-benzylpiperidin-4-yl)-7-(4-methylphenyl)-2,3-dihydro-1-benzooxepine-4-carboxamide]
10 | 128 to 130 °C | Cc1ccc(-c2ccc3c(c2)C=C(C(=O)NC2CCN(CC4=CCCCCCCC4)CC2)CCO3)cc1 [Compound 59, N-(1-(cyclononen-1-yl)methylpiperidin-4-yl)-7-(4-methylphenyl)-2,3-dihydro-1-benzooxepine-4-carboxamide]

Second part, the compound before the results:

Row | Compound | melting point
11 | CN(Cc1ccc(NC(=O)C2CCS(=O)(=O)c3ccc(OCc4ccc(F)cc4)cc3C2)cc1)C1CCOCC1 (stereo not drawn) [Compound 3, 7-(4-fluorobenzyloxy)-N-[4-[N-methyl-N-(tetrahydropyran-4-yl)aminomethyl]phenyl]-1,1-dioxo-3,4-dihydro-1-benzothiepine-4-carboxamide] | 232 to 234 °C
12 | CN(Cc1ccc(NC(=O)C2=Cc3cc(OCc4cccnc4)ccc3S(=O)(=O)CC2)cc1)C1CCOCC1 [Compound 4, N-[4-[N-methyl-N-(tetrahydropyran-4-yl)aminomethyl]phenyl]-7-(3-pyridylmethoxy)-1,1-dioxo-2,3-dihydro-1-benzothiepine-4-carboxamide] | 225 to 229 °C
13 | Cc1ccc(-c2ccc3c(c2)C=C(N(C)c2ccc(CN(C)C4CCOCC4)cc2)CCO3)cc1 [Compound 34, N-[4-[(N-methyl-N-(tetrahydropyran-4-yl)aminomethyl)]phenyl]-N-[7-(4-methylphenyl)-2,3-dihydro-1-benzooxepin-4-yl]methylamine] | 158 to 160 °C
14 | Cc1ccc(-c2ccc3c(c2)C=C(C(=O)NC2CCNCC2)CCO3)cc1 [Compound 54, N-(4-piperidinyl)-7-(4-methylphenyl)-2,3-dihydro-1-benzooxepine-4-carboxamide] | 183 to 185 °C
15 | Cc1ccc(-c2ccc3c(c2)C=C(C(=O)NC2CCN(CC4CCCCC4)CC2)CCO3)cc1 [Compound 55, N-(1-cyclohexylmethylpiperidin-4-yl)-7-(4-methylphenyl)-2,3-dihydro-1-benzooxepine-4-carboxamide] | 180 to 181 °C
16 | Cc1ccc(-c2ccc3c(c2)C=C(C(=O)NC2CCN(CCC4CCCCC4)CC2)CCO3)cc1 [Compound 60, N-(1-(2-cyclohexylethyl)piperidin-4-yl)-7-(4-methylphenyl)-2,3-dihydro-1-benzooxepine-4-carboxamide] | 193 to 196 °C
17 | Cc1ccc(-c2ccc3c(c2)C=C(C(=O)NC2CCN(C)CC2)CCO3)cc1 [Compound 61, N-(1-methylpiperidin-4-yl)-7-(4-methylphenyl)-2,3-dihydro-1-benzooxepine-4-carboxamide] | 180 to 182 °C
18 | Cc1ccc(-c2ccc3c(c2)C=C(C(=O)N[C@H]2CC[C@H](CN(C)C4CCOCC4)CC2)CCO3)cc1 [Compound 63, trans-7-(4-methylphenyl)-N-[4-[N-methyl-N-(tetrahydropyran-4-yl)aminomethyl]cyclohexyl]-2,3-dihydro-1-benzooxepine-4-carboxamide] | 144 to 146 °C
19 | Cc1ccc(-c2ccc3c(c2)C=C(C(=O)N[C@H]2CC[C@H](CN(C)C4CCOCC4)CC2)CCC3)cc1 [Compound 64, trans-2-(4-methylphenyl)-N-[4-[N-methyl-N-(tetrahydropyran-4-yl)aminomethyl]cyclohexyl]-6,7-dihydro-5H-benzocycloheptene-8-carboxamide] | 163 to 165 °C
20 | Cc1ccc(-c2ccc3c(c2)C=C(C(=O)N[C@H]2CC[C@H](CN(C)C4CCN(C(=O)OC(C)(C)C)CC4)CC2)CCO3)cc1 [Compound 65, trans-N-[4-[N-(1-tert-butoxycarbonylpiperidin-4-yl)-N-methylaminomethyl]cyclohexyl]-7-(4-methylphenyl)-2,3-dihydro-1-benzooxepine-4-carboxamide] | 146 to 150 °C
21 | Cc1ccc(-c2ccc3c(c2)C=C(C(=O)N[C@H]2CC[C@H](CN(C)C4CCOCC4)CC2)CO3)cc1 [Compound 67, trans-6-(4-methylphenyl)-N-[4-[N-methyl-N-(tetrahydropyran-4-yl)aminomethyl]cyclohexyl]-2H-1-benzopyran-3-carboxamide] | 141 to 143 °C
22 | Cc1ccc(C2=Cc3cc(C(=O)N[C@H]4CC[C@H](CN(C)C5CCOCC5)CC4)ccc3OC2)cc1 [Compound 68, trans-3-(4-methylphenyl)-N-[4-[N-methyl-N-(tetrahydropyran-4-yl)aminomethyl]cyclohexyl]-2H-1-benzopyran-6-carboxamide] | 205 to 207 °C
23 | Cc1ccc(-c2ccc3nc(C)c(C(=O)N[C@H]4CC[C@H](CN(C)C5CCOCC5)CC4)cc3c2)cc1 [Compound 70, trans-2-methyl-6-(4-methylphenyl)-N-[4-[N-methyl-N-(tetrahydropyran-4-yl)aminomethyl]cyclohexyl]quinoline-3-carboxamide] | 163 to 165 °C
24 | Cc1ccc(-c2csc(/C=C/C(=O)N[C@H]3CC[C@H](CN(C)C4CCOCC4)CC3)c2)cc1 [Compound 72, (trans, E)-3-[4-(4-methylphenyl)thiophen-2-yl]-N-[4-[N-methyl-N-(tetrahydropyran-4-yl)aminomethyl]cyclohexyl]acrylamide] | 180 to 183 °C
